Read-outs that look alike come from different tables or passages of the source.
Test system: multidrug resistant strain of Plasmodium yoelii Nigeriensis
Assay: Antimalarial activity against multidrug resistant P. yoelii in swiss mice
Assay type: in vivo
Settings: for % Suppression on Day 4 / inhibition in vivo at 96 mg/kg: 4 consecutive days (day 0-3), parasitaemia vs vehicle control; for Cured/treated: observed till day 28; for inhibition in vivo at 96 mg/kg / responders at 96 mg/kg: Plasmodium yoelii; for inhibition in vivo at 96 mg/kg: 96 h, read-out: % Suppression on Day 4; for responders at 96 mg/kg: 672 h, observed till day 28, read-out: Cured/treated (converted)

With `C=C(c1ccc(C2CCCCC2)cc1)C1COC2(CCC(C(C)(C)CC)CC2)OO1` (stereo not drawn) [Trioxane 7bi] the “% Suppression on Day 4” value (i.m., 96 mg/kg) was 53.01%, the Cured/treated (i.m., 96 mg/kg) was 0/5 and the “% Suppression on Day 4” value (oral, 96 mg/kg) was 100%. The Cured/treated (oral, 96 mg/kg) was 5/5.
In the case of `C=C(c1ccc(-c2ccc(Br)cc2)cc1)C1COC2(CCC(C(C)(C)CC)CC2)OO1` (stereo not drawn) [Trioxane 7fd], the “% Suppression on Day 4” value (i.m., 48 mg/kg) is reported as 51.09%, the Cured/treated (i.m., 48 mg/kg) is reported as 0/5 and the “% Suppression on Day 4” value (oral, 96 mg/kg) is reported as 88.39%. For the same compound, the Cured/treated (oral, 96 mg/kg) was 0/5.
`C(=CC1COC2(CCCC2)OO1)c1ccc(C2CCCC2)cc1` (stereo not drawn) [Trioxane 7aa, 8-[(4′-Cyclopentylphenyl)vinyl]-6,7,10-trioxaspiro-[4,5]-decane] was tested, and the “% Suppression on Day 4” value (i.m., 96 mg/kg) was 100%, the Cured/treated (i.m., 96 mg/kg) was 0/5 and the “% Suppression on Day 4” value (oral, 96 mg/kg) was 100%. For the same compound, the Cured/treated (oral, 96 mg/kg) was 5/5.
For `CC1(C)OCC(C=Cc2ccc(-c3ccc(Br)cc3)cc2)OO1` (stereo not drawn) [Trioxane 7fa, 3,3-Dimethyl-6-[(4′-bromo-[1,1′-biphenyl]-4-yl)-vinyl]-1,2,4-trioxane], the inhibition in vivo at 96 mg/kg (im, i.m., 96 mg/kg) was 83.7%, the responders at 96 mg/kg (im, i.m., 96 mg/kg) was 0% and the “% Suppression on Day 4” value (oral, 96 mg/kg) was “died”.
In the case of `C=C(c1ccc(C2CCCC2)cc1)C1COC2(CCC(c3ccccc3)CC2)OO1` (stereo not drawn) [Trioxane 7ab], the “% Suppression on Day 4” value (i.m., 96 mg/kg) is reported as 77.56%, the Cured/treated (i.m., 96 mg/kg) is reported as 0/5 and the “% Suppression on Day 4” value (oral, 96 mg/kg) is reported as 100%. For the same compound, the Cured/treated (oral, 96 mg/kg) was 0/5.
In the case of `C=C(c1ccc(-c2ccccc2)cc1)C1COC2(CCC(C(C)(C)CC)CC2)OO1` (stereo not drawn) [Trioxane 7eg], the “% Suppression on Day 4” value (i.m., 96 mg/kg) is reported as 87.6%, the Cured/treated (i.m., 96 mg/kg) is reported as 0/5 and the “% Suppression on Day 4” value (oral, 96 mg/kg) is reported as 100%. For the same compound, the Cured/treated (oral, 96 mg/kg) was 3/5.
`C=C(c1ccc(-c2ccccc2)cc1)C1COC2(CC3CCC2C3)OO1` (stereo not drawn) [Trioxane 8e] was tested, and the “% Suppression on Day 4” value (i.m., 96 mg/kg) was 100%, the Cured/treated (i.m., 96 mg/kg) was 1/4 and the “% Suppression on Day 4” value (oral, 96 mg/kg) was 100%. For the same compound, the Cured/treated (oral, 96 mg/kg) was 4/4.
For `C=C(c1ccc(C2CCCC2)cc1)C1COC2(CCC(C(C)(C)CC)CC2)OO1` (stereo not drawn) [Trioxane 7ae], the “% Suppression on Day 4” value (i.m., 96 mg/kg) was 43.58%, the Cured/treated (i.m., 96 mg/kg) was 0/5 and the “% Suppression on Day 4” value (oral, 96 mg/kg) was 100%. For the same compound, the Cured/treated (oral, 96 mg/kg) was 0/5.
`C=C(c1ccc(C2CCCCCC2)cc1)C1COC2(CC3CCC2C3)OO1` (stereo not drawn) [Trioxane 8c] was tested, and the “% Suppression on Day 4” value (i.m., 96 mg/kg) was 43.55%, the Cured/treated (i.m., 96 mg/kg) was 0/5 and the “% Suppression on Day 4” value (oral, 96 mg/kg) was 100%. The Cured/treated (oral, 96 mg/kg) was 3/5.
In the case of `C(=CC1COC2(CCCCC2)OO1)c1ccc(-c2ccccc2)cc1` (stereo not drawn) [Trioxane 7ec, 3-[([1,1′-biphenyl]-4yl)vinyl]-1,2,5-trioxaspiro (5,5) undecane], the inhibition in vivo at 96 mg/kg (oral, 96 mg/kg) is reported as 100%, the responders at 96 mg/kg (oral, 96 mg/kg) is reported as 100% and the inhibition in vivo at 96 mg/kg (im, i.m., 96 mg/kg) is reported as 100%. The responders at 96 mg/kg (im, i.m., 96 mg/kg) was 0%.
For `CCC1(C)OCC(C=Cc2ccc(C3CCCCC3)cc2)OO1` (stereo not drawn) [Trioxane 7bf], the “% Suppression on Day 4” value (i.m., 96 mg/kg) was 71.26%, the Cured/treated (i.m., 96 mg/kg) was 0/5 and the “% Suppression on Day 4” value (oral, 96 mg/kg) was 100%. For the same compound, the Cured/treated (oral, 96 mg/kg) was 0/5.
With `C=C(c1ccc(-c2ccc(Br)cc2)cc1)C1COC2(CCC(c3ccccc3)CC2)OO1` (stereo not drawn) [Trioxane 7ff] the “% Suppression on Day 4” value (i.m., 96 mg/kg) was 46.1%, the Cured/treated (i.m., 96 mg/kg) was 0/5 and the “% Suppression on Day 4” value (oral, 96 mg/kg) was 100%. The Cured/treated (oral, 96 mg/kg) was 2/5.
In the case of `C(=CC1COC2(CCCCC2)OO1)c1ccc(C2CCCC2)cc1` (stereo not drawn) [Trioxane 7ac, 3-[(4′-cyclopentylphenyl)vinyl]-1,2,5-trioxaspiro(5,5)undecane], the “% Suppression on Day 4” value (i.m., 96 mg/kg) is reported as 84.94%, the Cured/treated (i.m., 96 mg/kg) is reported as 0/5 and the “% Suppression on Day 4” value (oral, 96 mg/kg) is reported as 100%. The Cured/treated (oral, 96 mg/kg) was 5/5.
In the case of `Brc1ccc(-c2ccc(C=CC3COC4(CCCC4)OO3)cc2)cc1` (stereo not drawn) [Trioxane 7fe, 8-[(4′-bromo-[1,1′-biphenyl]-4yl)vinyl]-6,7,10-trioxaspiro (4,5) decane], the inhibition in vivo at 96 mg/kg (oral, 96 mg/kg) is reported as 100%, the responders at 96 mg/kg (oral, 96 mg/kg) is reported as 60% and the inhibition in vivo at 96 mg/kg (im, i.m., 96 mg/kg) is reported as 89.4%. For the same compound, the responders at 96 mg/kg (im, i.m., 96 mg/kg) was 0%.
`C=C(c1ccc(-c2ccc(Br)cc2)cc1)C1COC2(OO1)C1CC3CC(C1)CC2C3` (stereo not drawn) [Trioxane 9f] was tested, and the “% Suppression on Day 4” value (i.m., 96 mg/kg) was 92.4%, the Cured/treated (i.m., 96 mg/kg) was 2/5 and the “% Suppression on Day 4” value (oral, 48 mg/kg) was 100%. For the same compound, the Cured/treated (oral, 48 mg/kg) was 5/5.
With `C=C(c1ccc(C2CCCCC2)cc1)C1COC2(CC3CCC2C3)OO1` (stereo not drawn) [Trioxane 8b] the “% Suppression on Day 4” value (i.m., 96 mg/kg) was 100%, the Cured/treated (i.m., 96 mg/kg) was 3/5 and the “% Suppression on Day 4” value (oral, 48 mg/kg) was 100%. The Cured/treated (oral, 48 mg/kg) was 6/6.
In the case of “8-[(4′-cyclooctylphenyl)vinyl]-6,7,10-trioxaspiro(4,5)undecane [Trioxane 7de]”, the “% Suppression on Day 4” value (i.m., 96 mg/kg) is reported as 57.4%, the Cured/treated (i.m., 96 mg/kg) is reported as 0/5 and the “% Suppression on Day 4” value (oral, 96 mg/kg) is reported as 100%. The Cured/treated (oral, 96 mg/kg) was 3/5.
`C(=CC1COC2(CCCC2)OO1)c1ccc(C2CCCCC2)cc1` (stereo not drawn) [Trioxane 7bh, 8-[(4′-cyclohexylphenyl)vinyl]-6,7,10-trioxaspiro (4,5) decane] was tested, and the “% Suppression on Day 4” value (i.m., 96 mg/kg) was 100%, the Cured/treated (i.m., 96 mg/kg) was 1/4 and the “% Suppression on Day 4” value (oral, 96 mg/kg) was 100%. The Cured/treated (oral, 96 mg/kg) was 4/4.
In the case of `C(=CC1COC2(CCCCCC2)OO1)c1ccc(-c2ccccc2)cc1` (stereo not drawn) [Trioxane 7eh, 3[([1,1′-biphenyl]-4yl)vinyl]-1,2,5-trioxaspiro(5,6)dodecane], the inhibition in vivo at 96 mg/kg (oral, 96 mg/kg) is reported as 100%, the responders at 96 mg/kg (oral, 96 mg/kg) is reported as 80% and the inhibition in vivo at 96 mg/kg (im, i.m., 96 mg/kg) is reported as 92%. It also gave a responders at 96 mg/kg (im, i.m., 96 mg/kg) of 0%.
`C=C(c1ccc(C2CCCCCC2)cc1)C1COC2(OO1)C1CC3CC(C1)CC2C3` (stereo not drawn) [Trioxane 9c] was tested, and the “% Suppression on Day 4” value (i.m., 96 mg/kg) was 74.57%, the Cured/treated (i.m., 96 mg/kg) was 0/5 and the “% Suppression on Day 4” value (oral, 96 mg/kg) was 100%. The Cured/treated (oral, 96 mg/kg) was 5/5.
For `C=C(c1ccc(-c2ccccc2)cc1)C1COC2(OO1)C1CC3CC(C1)CC2C3` (stereo not drawn) [Trioxane 9e], the “% Suppression on Day 4” value (i.m., 96 mg/kg) was 100%, the Cured/treated (i.m., 96 mg/kg) was 0/6 and the “% Suppression on Day 4” value (oral, 96 mg/kg) was 100%. The Cured/treated (oral, 96 mg/kg) was 6/6.
With `CCC1(C)OCC(C=Cc2ccc(-c3ccc(Br)cc3)cc2)OO1` (stereo not drawn) [Trioxane 7fb, 3-Ethyl-3-methly-6-[(4′-bromo-[1,1′-biphenyl]-4-yl)-vinyl]-1,2,4-trioxane] the “% Suppression on Day 4” value (i.m., 96 mg/kg) was 51.41%, the Cured/treated (i.m., 96 mg/kg) was 0/5 and the “% Suppression on Day 4” value (oral, 96 mg/kg) was 100%. The Cured/treated (oral, 96 mg/kg) was 0/5.
For `C=C(c1ccc(C2CCCCCCC2)cc1)C1COC2(CCC(C(C)(C)CC)CC2)OO1` (stereo not drawn) [Trioxane 7df], the “% Suppression on Day 4” value (i.m., 96 mg/kg) was 0%, the Cured/treated (i.m., 96 mg/kg) was 0/5 and the “% Suppression on Day 4” value (oral, 96 mg/kg) was 100%. The Cured/treated (oral, 96 mg/kg) was 3/5.
With `C(=CC1COC2(CCCCC2)OO1)c1ccc(C2CCCCCC2)cc1` (stereo not drawn) [Trioxane 7ca, 3-[(4′-cycloheptylphenyl)vinyl]-1,2,5-trioxaspiro-[5,5]-undecane] the “% Suppression on Day 4” value (i.m., 96 mg/kg) was 62.18%, the Cured/treated (i.m., 96 mg/kg) was 0/5 and the “% Suppression on Day 4” value (oral, 96 mg/kg) was 100%. For the same compound, the Cured/treated (oral, 96 mg/kg) was 1/5.
For `C(=CC1COC2(CCCCC2)OO1)c1ccc(C2CCCCCCC2)cc1` (stereo not drawn) [Trioxane 7db, 3-[(4′-cyclooctylphenyl)vinyl]-1,2,5-trioxaspiro-(5,5)-undecane], the “% Suppression on Day 4” value (i.m., 96 mg/kg) was 9.5%, the Cured/treated (i.m., 96 mg/kg) was 0/5 and the “% Suppression on Day 4” value (oral, 96 mg/kg) was 100%. The Cured/treated (oral, 96 mg/kg) was 5/5.
In the case of `C=C(c1ccc(C2CCCCC2)cc1)C1COC2(OO1)C1CC3CC(C1)CC2C3` (stereo not drawn) [Trioxane 9b], the “% Suppression on Day 4” value (i.m., 96 mg/kg) is reported as 82.16%, the Cured/treated (i.m., 96 mg/kg) is reported as 0/5 and the “% Suppression on Day 4” value (oral, 96 mg/kg) is reported as 100%. For the same compound, the Cured/treated (oral, 96 mg/kg) was 5/5.
For `C=C(c1ccc(C2CCCCCCC2)cc1)C1COC2(OO1)C1CC3CC(C1)CC2C3` (stereo not drawn) [Trioxane 9d], the “% Suppression on Day 4” value (i.m., 96 mg/kg) was 60.12%, the Cured/treated (i.m., 96 mg/kg) was 0/5 and the “% Suppression on Day 4” value (oral, 96 mg/kg) was 100%. The Cured/treated (oral, 96 mg/kg) was 5/5.
For `C(=CC1COC2(CCCCC2)OO1)c1ccc(C2CCCCC2)cc1` (stereo not drawn) [Trioxane 7bd, 3-[(4′-Cyclohexylphenyl)vinyl]-1,2,5-trioxaspiro(5,5)undecane], the “% Suppression on Day 4” value (i.m., 96 mg/kg) was 71.73%, the Cured/treated (i.m., 96 mg/kg) was 0/5 and the “% Suppression on Day 4” value (oral, 96 mg/kg) was 100%. For the same compound, the Cured/treated (oral, 96 mg/kg) was 5/5.

Source: US6737438B2, “Substituted 1,2,4-trioxanes useful as antimalarial agents and a process for the preparation thereof” (Council of Scientific and Industrial Research, priority 2002, dated 2004)
